Columns and labels:
[1] = intracameral injection; cited from earlier work
[2] = Finding at development stage: compound dissolved as aqueous composition; assay type: physicochemical

hydrolysis of the compound in an aqueous composition ([2]; dissolved and prepared in the form of an aqueous composition) | Compound | intraocular pressure [1] | degradation of the compound under light irradiation ([2]; under the light irradiation)
– | CCN(CC)CC1CCCCN1CC(=O)N1c2ccccc2C(=O)Nc2cccnc21 (stereo not drawn) [AFDX0116, 11-[2-[2-[(diethylamino)methyl]-1-piperidinyl]acetyl]-5,11-dihydro-6H-pyrido[2,3-b][1,4]benzodiazepin-6-one] | decreased | –
susceptible to hydrolysis | CCN(CC)C[C@H]1CCCCN1CC(=O)N1c2ccccc2C(=O)Nc2cccnc21 [AFDX0250, (+)-11-[2-[2-[(diethylamino)methyl]-1-piperidinyl]acetyl]-5,11-dihydro-6H-pyrido[2,3-b][1,4]benzodiazepin-6-one] | – | easily degraded under the light irradiation
